Read-outs that look alike come from different tables or passages of the source.

Here are results for two compounds from article PMC7497679, “Structure-based design, synthesis, and evaluation of the biological activity of novel phosphoroorganic small molecule IAP antagonists” (Investigational New Drugs, 2020).

One test addresses T1, XIAP BIR3 domain (Homo sapiens, UniProt P98170).
T1 construct: fluorescent probe 4 and the XIAP BIR3 domain (Sino Biological, Beijing, China) were used for all measurements; purchased Sino Biological, Beijing, China
The test is described as follows: Fluorescence polarization inhibition (competition) assay. It is filed as binding. The settings on record: for inhibition at 50 µM: 0.5 h, antagonist 50 µM, inhibition of protein-probe interaction; for Ki / EC50: XIAP BIR3 50 nM, fluorescent probe 4 2 nM. The essentials: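 BIR3 protein (50 nM) preincubated 15 min at r.t. with compound (50 μM to 0.0537 nM), then fluorescent probe 4 (2 nM) added and polarization read 30 min later (ex 484, em 528 nm). Phosphate buffer pH 7.5 with γ-globulin, NaN3, 1.4% DMSO; duplicates. EC50 from variable-slope fit, converted to Ki.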
A general note: In fluorescence polarisation assays a small probe gives low polarisation when free and higher when bound to something large.

Another test deals with A549. As to the kind of experiment: Antiproliferative activity, SRB method. In kind it is cell-based, human. The settings on record: Homo sapiens, A549, 10 µM, 72 h, read-out: mean proliferation inhibition at highest concentration used, A549. From the text: (§1) MDA-MB-231 (human breast cancer), MCF10A (human, nontumorigenic mammary gland epithelial cells), A549 (human nonsmall-cell lung cancer), UMUC-3 (human bladder cancer) and LoVo (human colon cancer) cell lines were obtained from the American Type Culture Collection (ATCC; Rockville, Maryland, USA). The MCF-7 cell line (human breast cancer) was obtained from the European Collection of Cell Cultures (ECACC; Salisbury, UK). All cell lines were maintained at the Hirszfeld Institute of Immunology and Experimental Therapy (HIIET), Wrocław, Poland. MDA-MB-231 cells were cultured in RPMI1640 medium (Thermo Fisher Scientific, Warszawa, Poland) supplemented with 2 mM L-glutamine, 1 mM sodium pyruvate, and 10% fetal bovine serum (all from Sigma-Aldrich, Poznań, Poland). The MCF10A cell line was cultured in Ham’s F12 medium with glutamine (Corning) supplemented with 5% (v/v) fetal bovine serum (FBS), 5% (v/v) horse serum, 10 µg/mL insulin, 0.05 µg/mL cholera toxin, 0.5 µg/mL hydrocortisone, and 20 ng/mL hEGF (all from Sigma-Aldrich). A549 and LoVo cells were cultured in a 1:1 (v/v) mixture of RPMI1640 and Opti-MEM (both from HIIET) supplemented with 5% (v/v) FBS and 2 mM L-glutamine. The UMUC-3 cell line was cultured in high glucose DMEM (Thermo Fisher Scientific) supplemented with 10% FBS and 2 mM Lglutamine. The MCF-7 line was cultured in Eagle’s minimal essential medium (EMEM; Thermo Fisher Scientific) supplemented with 10% (v/v) FBS, 2 mM L-glutamine, 1% (v/v) nonessential amino acids, and 8 µg/mL insulin (all from Sigma-Aldrich). All culture media contained 100 µg/mL streptomycin (Sigma-Aldrich) and 100 U/mL penicillin (Polfa Tarchomin SA, Warszawa, Poland). The cells were grown at 37 °C in a humid atmosphere saturated with 5% CO2.
(§2) Antiproliferative activity was assessed in six cell lines utilizing the sulforhodamine B (SRB) method. Briefly, cells were seeded in 96-well plates (Sarstedt, Warszawa, Poland) at a density of 5 × 10^3 cells/well, and after overnight incubation, the cells were exposed to compounds at various concentrations. After 72 h, the plates were fixed with 50% (v/v) TCA (all from Sigma-Aldrich), washed with tap water, and the precipitated proteins were labeled with 0.1% (w/v) SRB solution in 1% (v/v) AcOH. Next, the plates were washed with 1% (v/v) AcOH, and the remaining SRB dye was solubilized with 10 mM unbuffered TRIS solution. The absorbance was measured using a Biotek Hybrid H4 reader (BioTek Instruments, VT, USA) at 540 nm. Crude results were analyzed using a previously described method, and the results are expressed as the IC50 (compound concentration that reduced cell growth by 50%) compared to the vehicletreated control (0.1% (v/v) DMSO). The samples were analyzed in triplicate, and each experiment was repeated at least three times.
Background: The SRB assay estimates cell density from bound dye.

For another test, the system named is LoVo. As to the kind of experiment: Antiproliferative activity, SRB method. The settings on record: Homo sapiens, LoVo, 10 µM, 72 h, read-out: mean proliferation inhibition at highest concentration used, LoVo. In kind it is cell-based, human.
Description: as §1, §2

In a further test the test system is MCF-10A. As to the kind of experiment: Antiproliferative activity, SRB method. Conditions: Homo sapiens, MCF-10A, 10 µM, 72 h, read-out: mean proliferation inhibition at highest concentration used, MCF-10A. In kind it is cell-based, human.
Description: as §1, §2

A further test has as its system MCF-7. The test is described as follows: Antiproliferative activity, SRB method. The settings on record: Homo sapiens, MCF7, 10 µM, 72 h, read-out: mean proliferation inhibition at highest concentration used, MCF-7. It is filed as cell-based, human.
Description: as §1, §2

The next test relates to MDA-MB-231. The test is described as follows: Antiproliferative activity, SRB method. It is filed as cell-based, human. Conditions: Homo sapiens, MDA-MB-231, 72 h, read-out: IC50 ± SD (n = 3) MDA-MB-231.
Description: as §1, §2

In a further test the test system is UMUC-3. As to the kind of experiment: Antiproliferative activity, SRB method. The settings on record: Homo sapiens, UMUC3, 10 µM, 72 h, read-out: mean proliferation inhibition at highest concentration used, UMUC-3. It is filed as cell-based, human.
Description: as §1, §2

T1 sequence (P98170 252-356 limits assumed): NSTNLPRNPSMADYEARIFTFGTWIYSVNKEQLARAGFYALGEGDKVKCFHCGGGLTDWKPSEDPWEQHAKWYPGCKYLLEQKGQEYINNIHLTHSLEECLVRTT

For the compound `CN[C@@H](C)C(=O)N[C@H](C(=O)N1CCC[C@H]1C(=O)NC(Cc1ccccc1)P(=O)(Oc1ccccc1)Oc1ccccc1)C(C)C` (stereo partly drawn) [Compound 41, diphenyl (1-((S)-1-((S)-3-methyl-2-((S)-2-(methylamino)propanamido)butanoyl)pyrrolidine-2-carboxamido)-2-phenylethyl)phosphonate], at XIAP BIR3 domain, the inhibition at 50 µM came out at 100%. The Ki on XIAP BIR3 domain was 50 nM. In addition, the EC50 was 130 nM on XIAP BIR3 domain (read-out: EC50) and 131 nM at XIAP BIR3 domain (read-out: log EC50 (converted)). Besides, the inhibition at 10 µM in the test with A549 was determined as 10%; with LoVo, 11%; with MCF-10A it was 2%; in the test on MCF-7 it was 20%; with UMUC-3, 5%. Also, the IC50 in the test with MDA-MB-231 was determined as 2580 ± 320 nM.

Regarding `CN[C@@H](C)C(=O)N[C@H](C(=O)N1CCC[C@H]1C(=O)NC(Cc1ccccc1)P(=O)(Oc1ccccc1)Oc1ccccc1)C1CCCCC1` (stereo partly drawn) [Compound 42, diphenyl (1-((S)-1-((S)-2-cyclohexyl-2-((S)-2-(methylamino)propanamido)acetyl)pyrrolidine-2-carboxamido)-2-phenylethyl)phosphonate], the inhibition at 50 µM at XIAP BIR3 domain was 100%. Besides, the Ki on XIAP BIR3 domain was 350 nM. The EC50 on XIAP BIR3 domain (read-out: EC50) was 740 nM; at XIAP BIR3 domain (read-out: log EC50 (converted)) it was 738 nM. In addition, the inhibition at 10 µM in the test on A549 came to 23%; in the test with LoVo, 12%; in the test with MCF-10A, 2%; in the test with MCF-7 it was 16%; with UMUC-3 it was 6%. For the same compound, the IC50 in the test with MDA-MB-231 was 2460 ± 380 nM.

By Ki is commonly meant a measure of affinity in units of concentration, obtained from inhibition or displacement. What is called EC50 is the concentration at which the effect is half-maximal. By IC50 is commonly meant the concentration needed to halve the response being measured.
